Experimental data: ChEMBL document CHEMBL4311933, “Biochemical and microbiological evaluation of N-aryl urea derivatives against mycobacteria and mycobacterial hydrolases” (Medchemcomm, 2019)
Converted amounts (≈) assume the structure as drawn. The source made the active and inactive calls. The calls are words filed in the database; no cut-off is given here.

Columns and labels:
[1] = target: T1, Carboxylesterase/lipase Culp6 (Mycobacterium tuberculosis (strain ATCC 25618 / H37Rv), UniProt O53581); experiment: (§1) Inhibition of recombinant Mycobacterium tuberculosis H37Rv ATCC 25618 Rv3802c expressed in Escherichia coli T7 assessed as residual activity by measuring hydrolysis of resorufin butyrate at 500 uM using resorufin butyrate as substrate preincubated for 15 mins followed by substrate addition relative to control; conditions: for activity at 500 µM: read-out: Activity
T1 sequence (O53581 whole entry): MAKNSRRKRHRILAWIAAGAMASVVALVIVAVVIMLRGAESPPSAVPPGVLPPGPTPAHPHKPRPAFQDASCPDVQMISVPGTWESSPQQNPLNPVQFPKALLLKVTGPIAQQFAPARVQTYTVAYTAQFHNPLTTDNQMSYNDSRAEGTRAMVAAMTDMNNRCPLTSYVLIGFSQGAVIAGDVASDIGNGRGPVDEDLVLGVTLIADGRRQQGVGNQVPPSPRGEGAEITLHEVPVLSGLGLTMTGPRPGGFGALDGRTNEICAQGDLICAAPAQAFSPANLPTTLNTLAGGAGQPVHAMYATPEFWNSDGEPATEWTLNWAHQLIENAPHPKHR

[2] = Selectivity index, ratio of IC50 for murine L929 cells to MIC for Mycobacterium tuberculosis H37Ra ATCC 25177; assay type: toxicity; conditions: mouse, read-out: Selectivity Index
[3] = tested on: Mycobacteroides abscessus; experiment: Antimycobacterial activity against Mycobacterium abscessus ATCC 19977 after 7 days by resazurin microtiter assay; assay type: functional; conditions: ATCC 19977, 168 h
[4] = tested on: Mycobacterium tuberculosis; experiment: Antimycobacterial activity against Mycobacterium tuberculosis H37Rv mc2 6206 after 7 days by resazurin microtiter assay; assay type: functional; conditions: H37Rv mc2 6206, 168 h
L929 = experiment: Cytotoxicity against murine L929 assessed as reduction in cell viability after 24 hrs by MTT assay; assay type: cell-based; conditions: Mus musculus, L929, 24 h
[5] = Selectivity index, ratio of IC50 for murine L929 cells to MIC for Mycobacterium tuberculosis H37Rv mc2 6206; assay type: toxicity; conditions: mouse, read-out: Selectivity Index
[6] = tested on: Mycolicibacterium smegmatis; experiment: Antimycobacterial activity against Mycobacterium smegmatis mc2 155 after 7 days by resazurin microtiter assay; assay type: functional; conditions: MC2 155, 168 h
[7] = tested on: Mycobacterium tuberculosis; experiment: Antimycobacterial activity against Mycobacterium tuberculosis H37Ra ATCC 25177 after 7 days by resazurin microtiter assay; assay type: functional; conditions: H37Ra ATCC 25177, 168 h
[8] = target: T1, Carboxylesterase/lipase Culp6; experiment: Inhibition of recombinant Mycobacterium tuberculosis H37Rv ATCC 25618 Rv3802c cutinase expressed in Escherichia coli T7 at 500 uM using resorufin butyrate as substrate preincubated for 15 mins followed by substrate addition relative to control
[9] = target: T1, Carboxylesterase/lipase Culp6; experiment: Inhibition of recombinant Mycobacterium tuberculosis H37Rv ATCC 25618 Rv3802c cutinase expressed in Escherichia coli T7 assessed as inhibition constant using resorufin butyrate as substrate preincubated for 15 mins followed by substrate addition
[10] = tested on: Mycobacterium tuberculosis H37Rv; experiment: Inhibition of recombinant Mycobacterium tuberculosis H37Rv ATCC 25618 mycolyltransferase expressed in Escherichia coli T7 at 500 uM using resorufin butyrate as substrate preincubated for 15 mins followed by substrate addition by fluorimetric assay
[11] = target: T1, Carboxylesterase/lipase Culp6; experiment: as §1, with “200” for “500”, “addition by” for “addition”; conditions: read-out: Activity
[12] = tested on: Mycobacterium tuberculosis H37Rv; experiment: as §1, with “mycolyltransferase” for “Rv3802c”, “200” for “500”, “addition by fluorimetric assay” for “addition”

SMILES	activity at 500 µM [1]	inhibition [10]	activity at 200 µM [11]	other results
O=C(NCC1CCCCC1)Nc1ccc(F)cc1	66%			
O=C(NCC1CCCCC1)Nc1cc(F)cc(F)c1	72.5%			selectivity ratio [2]: > 20; MIC [3]: 25 µM (≈ 6.71 µg/mL); MIC [4]: 3.12 µM (≈ 0.837 µg/mL); IC50 (L929): 70 µM; selectivity ratio [5]: > 20; MIC [6]: 62.5 µM (≈ 16.8 µg/mL); MIC [7]: 25 µM (≈ 6.71 µg/mL)
O=C(NCC1CCCCC1)Nc1ccc(C(F)(F)F)cc1	83.6%			selectivity ratio [2]: > 20; MIC [3]: > 100 µM; MIC [4]: 1.5 µM (≈ 0.45 µg/mL); IC50 (L929): 56 µM; selectivity ratio [5]: > 20; MIC [6]: > 100 µM; MIC [7]: 12.5 µM (≈ 3.75 µg/mL)
O=C(NCc1ccco1)Nc1cc(F)cc(F)c1	13%			inhibition at 500 µM [8]: 88%; Ki [9]: 5.2 µM
O=C(NCc1ccco1)Nc1ccc(C(F)(F)F)cc1	82%			
O=C(Nc1ccccc1)N1CCCCC1	43%	inactive		
O=C(NCc1ccco1)Nc1ccc(F)cc1	54.9%			
O=C(Nc1cc(F)cc(F)c1)N(Cc1ccco1)Cc1ccco1			100%	
O=C(NCc1ccco1)n1nnc2ccccc21			44%	Activity [12]: 80%
O=C(NCc1cccs1)Nc1ccccc1	50.5%	inactive		
O=C(Nc1cc(F)cc(F)c1)N(Cc1ccc(F)cc1)Cc1ccco1			100%	
O=C(NCC1CCCCC1)Nc1ccc(Br)cc1	100%			
O=C(NCC1CCCCC1)n1nnc2ccccc21			43%	
O=C(NCC1CCCCC1)Nc1ccccc1	53%	inactive		
O=C(Nc1ccccc1)NC1CCCCC1	84.3%	inactive		
O=C(NCc1ncc[nH]1)Nc1cc(F)cc(F)c1			100%	
O=C(NCCc1ccccc1)Nc1ccccc1	73.1%	inactive		
CSc1nncn1C(=O)NCC1CCCCC1			40%	
O=C(NCc1ccco1)n1ccnn1			72.5%	Activity [12]: 14%
O=C(Nc1ccccc1)NC1CCCC1	56.2%	inactive		
O=C(NCc1nc2ccccc2[nH]1)Nc1cc(F)cc(F)c1			20%	
O=C(NCc1ccco1)Nc1ccccc1	38.2%	inactive		
O=C(NCC1CCCCC1)Nc1ccc([N+](=O)[O-])cc1				selectivity ratio [2]: > 20; MIC [3]: > 100 µM; MIC [4]: 3.12 µM (≈ 0.865 µg/mL); IC50 (L929): 57 µM; selectivity ratio [5]: > 20; MIC [6]: 15.6 µM (≈ 4.33 µg/mL); Activity ([1]; 500 µM): Active; MIC [7]: 25 µM (≈ 6.93 µg/mL)
